Laboratory results from patent US20130030055A1, “COMPOSITIONS AND METHODS FOR TREATING HAIR LOSS, HAIR THINNING, AND HAIR COLOR LOSS” (priority 2010, published 2013).

Test system: eyelashes
Assay: Randomized vehicle-controlled study: digital image analysis of eyelash length, thickness/fullness, darkness
Type: in vivo, human
Conditions: week 16; p<0.0001 vs vehicle
Text: The primary efficacy variable was the change in GEA score from the baseline measurement to the month 4 (week 16) measurement. A clinical success was defined as at least a 1-grade increase from baseline. […] The digital image analysis was based on standardized equipment and subject preparation. Digital image analysis is a photographic process developed and performed by Canfield Scientific, Inc. The details regarding these processes are maintained by Canfield Scientific, Inc. and are available upon request. The information describing software and technical processes of digital image analysis is maintained in standard operating procedures (SOPs) and work instruction manuals on file at Canfield Scientific, Inc. Upper eyelash length was measured within a defined eyelash boundary for each eye, known as the full area of interest (AOI). For the digital image, the computer software divided the full AOI image into a series of 25 vertical pixel segments. Within each segment, the maximum upper eyelash length (defined as the maximum height of each segment) was measured in pixels. The mean number of pixels over all segments represented the upper eyelash length and was computed for each digital image across both eyes. Upper eyelash length was additionally measured in terms of millimeters (mm). […] Upper eyelash thickness/fullness was measured within 3 preset rectangular areas (proximal, medial, and distal, each 300×25 pixels) positioned at fixed distances from a standardized point on the eyelash margin. […] Eyelash thickness/fullness was assessed across both eyes as an average of the 3 rectangular areas (i.e., average progressive eyelash thickness), individually for the 3 areas (proximal, medial, and distal), within the full AOI, and within the spline (a narrow area approximately 5 pixels wide, bisecting the AOI). Upper eyelash thickness/fullness was additionally measured in terms of mm2. […] Upper eyelash darkness was determined by lash intensity of the upper eyelash area within the spline. […] Eyelash intensity was calculated within the full AOI and within the spline. […]

## CCNC(=O)CCC/C=C\C[C@@H]1[C@@H](/C=C/[C@@H](O)CCc2ccccc2)[C@H](O)C[C@@H]1O [bimatoprost]
  Mean change from baseline in eyelash darkness, as darker eyelashes: 18%
  Mean change from baseline in eyelash length, as increase in length: 25%
  Mean change from baseline in eyelash thickness/fullness, as increase: 106%
